From ChEMBL document CHEMBL1201862, “PubChem BioAssay data set” (2004)
Activity calls are given as the source filed them.

What was measured:
[1] = viability loss in MITF-independent A375 cells – cell-based, CellTiter-Glo luminescence, dry powder, set 2, counter-screen for MITF inhibitor project, dose response (AID 624489); type: functional; details: A-375;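 also: actives are compounds lowering A375 viability meaning general cytotoxicity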
[2] = cytotoxicity in MITF-independent A375 cells – cell-based, CellTiter-Glo luminescence, dry powder, set 4, counter-screen for MITF inhibitor project, dose response (AID 624364); type: functional; details: A-375;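 also: A375 melanoma cells are MITF independent so this is a counter screen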
[3] = fluconazole-exposed Candida albicans growth modulators – fluorescence, retest, confirmation (AID 2467); type: functional, cell-based
[4] = molecular target: SWI/SNF-related matrix-associated actin-dependent regulator of chromatin subfamily A member 2 (Homo sapiens, UniProt P51531); experiment: Luminescence-based cell-based high throughput dose response assay to identify activators of the function of SWI/SNF related, matrix associated, actin dependent regulator of chromatin, subfamily a, member 2 (SMARCA2, BRM).; type: functional
SWI/SNF-related matrix-associated actin-dependent regulator of chromatin subfamily A member 2, sequence (P51531 whole entry): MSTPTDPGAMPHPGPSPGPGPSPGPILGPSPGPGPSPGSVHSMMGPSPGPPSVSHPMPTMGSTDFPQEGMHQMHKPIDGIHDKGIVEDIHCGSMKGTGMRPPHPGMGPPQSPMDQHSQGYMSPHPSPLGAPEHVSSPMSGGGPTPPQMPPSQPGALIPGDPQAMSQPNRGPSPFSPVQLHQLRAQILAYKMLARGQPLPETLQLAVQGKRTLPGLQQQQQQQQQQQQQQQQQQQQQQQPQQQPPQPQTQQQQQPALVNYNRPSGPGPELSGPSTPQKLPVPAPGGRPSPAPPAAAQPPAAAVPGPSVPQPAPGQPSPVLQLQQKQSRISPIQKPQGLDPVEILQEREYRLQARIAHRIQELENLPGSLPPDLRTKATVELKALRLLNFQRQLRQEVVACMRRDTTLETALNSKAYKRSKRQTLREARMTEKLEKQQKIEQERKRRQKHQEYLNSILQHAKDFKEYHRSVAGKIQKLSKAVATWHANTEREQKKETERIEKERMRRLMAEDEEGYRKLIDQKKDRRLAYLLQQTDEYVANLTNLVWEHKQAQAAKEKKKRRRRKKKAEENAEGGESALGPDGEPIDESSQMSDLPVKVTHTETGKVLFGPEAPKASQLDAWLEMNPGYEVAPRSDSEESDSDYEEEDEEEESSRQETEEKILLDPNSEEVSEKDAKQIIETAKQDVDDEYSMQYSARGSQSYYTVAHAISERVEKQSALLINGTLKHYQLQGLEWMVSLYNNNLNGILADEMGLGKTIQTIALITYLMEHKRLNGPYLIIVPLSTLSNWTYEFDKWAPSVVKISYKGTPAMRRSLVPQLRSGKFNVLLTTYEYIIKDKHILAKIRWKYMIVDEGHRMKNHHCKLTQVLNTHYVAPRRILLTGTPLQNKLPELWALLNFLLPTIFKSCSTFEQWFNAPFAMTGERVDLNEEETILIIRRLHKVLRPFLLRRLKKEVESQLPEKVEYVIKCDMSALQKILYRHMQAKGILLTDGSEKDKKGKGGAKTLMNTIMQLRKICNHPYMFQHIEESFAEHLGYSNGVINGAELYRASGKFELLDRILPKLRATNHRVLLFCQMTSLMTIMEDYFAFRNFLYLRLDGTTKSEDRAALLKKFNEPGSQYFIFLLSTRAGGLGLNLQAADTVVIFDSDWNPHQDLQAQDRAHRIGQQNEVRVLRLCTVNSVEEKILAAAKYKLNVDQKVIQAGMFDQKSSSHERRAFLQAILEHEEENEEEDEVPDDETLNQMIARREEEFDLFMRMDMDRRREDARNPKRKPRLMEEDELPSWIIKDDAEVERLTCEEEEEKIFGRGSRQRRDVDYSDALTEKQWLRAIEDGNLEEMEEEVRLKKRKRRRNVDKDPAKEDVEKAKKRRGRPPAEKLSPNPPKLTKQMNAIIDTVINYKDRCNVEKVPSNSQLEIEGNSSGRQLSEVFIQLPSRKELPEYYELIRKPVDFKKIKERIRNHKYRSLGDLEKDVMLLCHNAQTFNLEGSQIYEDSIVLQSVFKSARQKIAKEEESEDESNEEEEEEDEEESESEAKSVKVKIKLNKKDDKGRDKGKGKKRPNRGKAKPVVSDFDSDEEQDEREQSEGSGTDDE

[5] = Counterscreen for activators of the function of SWI/SNF related, matrix associated, actin dependent regulator of chromatin, subfamily a, member 2 (SMARCA2, BRM): Luminescence-based cell-based high throughput dose response assay to identify non-selective compounds using the VP16 reporter assay.; type: functional
[6] = NIH-3T3 fibroblast cytotoxicity, dose response, cytotoxicity control, cell-based, fluorescence, Alamar Blue, secondary assay (AID 2327); type: functional;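 also: NIH-3T3 mouse fibroblasts cultured with fluconazole at 8 µg/mL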
[7] = molecular target: T1, Oxysterols receptor LXR-beta (Homo sapiens, UniProt P55055); type: functional, cell-based;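 also: Cell-based luminescence dose-response assay of agonist activity at LXR, run as a confirmatory counterscreen to a daf-12 agonist screen; HEK293 cells with Gal4-LXR fusion and GAL4-driven luciferase reporter; agonist potency from rising luciferase signal of a Gal4-LXR reporter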
T1 sequence (P55055 whole entry): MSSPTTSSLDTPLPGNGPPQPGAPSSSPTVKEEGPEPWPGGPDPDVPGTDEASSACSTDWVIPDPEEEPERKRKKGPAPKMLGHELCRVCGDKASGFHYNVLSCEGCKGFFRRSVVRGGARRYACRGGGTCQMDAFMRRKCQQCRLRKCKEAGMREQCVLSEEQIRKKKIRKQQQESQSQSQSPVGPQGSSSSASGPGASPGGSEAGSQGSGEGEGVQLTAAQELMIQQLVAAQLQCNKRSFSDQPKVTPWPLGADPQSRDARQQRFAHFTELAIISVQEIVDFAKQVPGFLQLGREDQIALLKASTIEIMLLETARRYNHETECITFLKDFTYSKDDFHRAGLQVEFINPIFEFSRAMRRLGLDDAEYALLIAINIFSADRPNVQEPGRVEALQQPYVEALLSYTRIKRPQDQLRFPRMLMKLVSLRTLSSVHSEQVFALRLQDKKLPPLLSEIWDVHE

[8] = cells
[9] = molecular target: T2, NAD-dependent protein deacylase sirtuin-5, mitochondrial (Homo sapiens, UniProt Q9NXA8); experiment: sirtuin-5 deacylation blockers, concentration series – biochemical, fluorescence imaging, cherry-pick, set 5, dose response (AID 720591);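 also: desuccinylation of succinyl peptide AMC substrate read as fluorescence after trypsin release; potency of inhibitors that lower fluorescence and may act on trypsin instead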
T2 sequence (Q9NXA8 whole entry): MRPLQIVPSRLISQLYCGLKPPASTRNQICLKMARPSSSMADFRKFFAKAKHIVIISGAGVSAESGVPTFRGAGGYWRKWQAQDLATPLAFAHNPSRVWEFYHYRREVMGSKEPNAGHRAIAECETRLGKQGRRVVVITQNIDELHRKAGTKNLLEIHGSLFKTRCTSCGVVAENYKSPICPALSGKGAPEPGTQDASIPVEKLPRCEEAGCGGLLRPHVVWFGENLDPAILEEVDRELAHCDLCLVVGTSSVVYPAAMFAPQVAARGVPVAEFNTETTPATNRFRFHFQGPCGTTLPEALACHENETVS

[10] = OVCAR-3 cell viability loss – plate reader, dry powder samples, PAX8 inhibitor project, dose response (AID 743044); type: functional, cell-based
[11] = A2780 cell killing – plate reader, dry powder samples, cytotoxicity control, dose response (AID 743046); type: functional, cell-based
[12] = OVCAR8 cell viability loss – plate reader, dry powder samples, PAX8 project, dose response (AID 743197); type: functional, cell-based; details: OVCAR-8
[13] = molecular target: T2, NAD-dependent protein deacylase sirtuin-5, mitochondrial; experiment: blockers of sirtuin-5 peptide desuccinylation – biochemical, fluorescence imaging, cherry-pick, set 6, dose response (AID 720597)
[14] = molecular target: Paired box protein Pax-8 (Homo sapiens, UniProt Q06710); experiment: PAX8 transcriptional activity inhibition in RMG-I – RMG-I cells, luciferase, cherry-pick, dose response (AID 687027); type: functional, cell-based;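 also: luciferase reporter driven by Pax8 target thyroperoxidase promoter measured by SteadyGlo luminescence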
Paired box protein Pax-8, sequence (Q06710 whole entry): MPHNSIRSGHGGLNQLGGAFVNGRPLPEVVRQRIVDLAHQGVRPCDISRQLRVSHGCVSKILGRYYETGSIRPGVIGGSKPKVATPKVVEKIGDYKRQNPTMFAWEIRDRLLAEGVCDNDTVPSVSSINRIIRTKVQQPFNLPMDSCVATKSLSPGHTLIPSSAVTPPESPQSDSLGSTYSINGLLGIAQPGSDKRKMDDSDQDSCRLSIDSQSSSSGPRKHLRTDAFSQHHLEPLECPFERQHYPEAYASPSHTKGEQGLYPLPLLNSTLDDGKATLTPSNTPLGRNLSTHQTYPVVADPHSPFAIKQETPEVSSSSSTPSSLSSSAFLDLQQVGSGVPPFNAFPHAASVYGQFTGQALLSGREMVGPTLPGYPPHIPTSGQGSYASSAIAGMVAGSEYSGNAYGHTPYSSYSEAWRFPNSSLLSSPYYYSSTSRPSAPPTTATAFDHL

[15] = IGROV1 cell killing – plate reader, dry powder samples, PAX8 inhibitor project, dose response (AID 743043); type: functional, cell-based; details: IGROV-1
[16] = toxicity toward immortalized ovarian surface epithelium – cell-based, plate reader, dry powder samples, cytotoxicity control for PAX8 inhibitor project, dose response (AID 743045); type: functional
[17] = intracellular Trypanosoma cruzi inhibitors in host cells – cell-based, plate reader, cherry-pick samples, set 3, dose response (AID 651818); type: functional;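 also: compounds incubated with infected cells for about four days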
[18] = potency of ADAM10 substrate cleavage blockers – biochemical, QFRET, dose response (AID 743254);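 also: ADAM10 enzyme with the DM2 quenched FRET peptide as substrate; EDANS fluorescence gain as the protease cuts the substrate; inhibitor potency against ADAM10 proteolytic activity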
[19] = molecular target: Disintegrin and metalloproteinase domain-containing protein 17 (Homo sapiens, UniProt P78536); experiment: inhibition of ADAM17 substrate cleavage – biochemical, quenched FRET substrate, counter-screen for ADAM10 exosite inhibitor project, dose response (AID 743253)
Disintegrin and metalloproteinase domain-containing protein 17, sequence (P78536 whole entry, the tested form may be a part): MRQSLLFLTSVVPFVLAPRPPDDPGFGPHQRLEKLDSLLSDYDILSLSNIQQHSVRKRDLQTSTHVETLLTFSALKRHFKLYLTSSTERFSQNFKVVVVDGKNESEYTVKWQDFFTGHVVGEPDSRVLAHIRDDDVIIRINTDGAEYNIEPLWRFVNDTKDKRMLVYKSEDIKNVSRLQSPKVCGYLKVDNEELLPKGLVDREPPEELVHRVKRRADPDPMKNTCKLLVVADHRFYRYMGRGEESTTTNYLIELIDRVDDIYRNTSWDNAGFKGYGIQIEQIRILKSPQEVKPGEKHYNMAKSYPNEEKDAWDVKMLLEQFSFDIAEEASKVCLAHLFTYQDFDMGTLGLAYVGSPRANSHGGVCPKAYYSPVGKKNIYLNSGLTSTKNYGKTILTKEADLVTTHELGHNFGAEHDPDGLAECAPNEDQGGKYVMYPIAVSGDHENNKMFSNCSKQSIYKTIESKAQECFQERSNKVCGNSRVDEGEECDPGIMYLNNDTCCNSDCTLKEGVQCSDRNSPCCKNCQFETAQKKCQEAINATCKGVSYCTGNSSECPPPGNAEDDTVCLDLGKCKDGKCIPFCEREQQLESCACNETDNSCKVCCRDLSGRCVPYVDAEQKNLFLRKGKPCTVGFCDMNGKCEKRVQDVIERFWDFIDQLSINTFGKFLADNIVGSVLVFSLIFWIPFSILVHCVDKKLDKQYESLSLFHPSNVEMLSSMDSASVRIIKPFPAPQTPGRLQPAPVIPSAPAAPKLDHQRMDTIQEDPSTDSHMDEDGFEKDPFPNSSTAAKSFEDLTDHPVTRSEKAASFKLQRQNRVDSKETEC

[20] = molecular target: Fructose-bisphosphate aldolase (Mycobacterium tuberculosis, UniProt P9WQA3); experiment: Fluorescence-based biochemical high throughput dose response assay for inhibitors of the fructose-bisphosphate aldolase (FBA) of M. tuberculosis.; type: functional
Fructose-bisphosphate aldolase, sequence (P9WQA3 whole entry): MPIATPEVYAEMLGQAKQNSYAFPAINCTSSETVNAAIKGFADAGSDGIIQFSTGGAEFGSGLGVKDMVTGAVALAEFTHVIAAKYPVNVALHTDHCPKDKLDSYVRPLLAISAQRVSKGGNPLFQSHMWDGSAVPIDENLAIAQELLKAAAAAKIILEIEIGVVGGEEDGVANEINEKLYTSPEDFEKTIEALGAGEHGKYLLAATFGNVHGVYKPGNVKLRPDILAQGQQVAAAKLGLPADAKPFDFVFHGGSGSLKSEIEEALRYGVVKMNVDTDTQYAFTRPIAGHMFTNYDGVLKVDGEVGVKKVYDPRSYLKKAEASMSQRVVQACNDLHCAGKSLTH

[21] = activation of miR-122 Renilla sensor silencing – cell-based, Huh7 psiCHECK-miR122, Renilla luciferase, cherry-picked, dose response (AID 651956); type: functional;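 also: huh7 hepatoma cells stably carrying a psiCHECK-2 miR-122 sensor plasmid; renilla luciferase signal reporting endogenous miR-122 activity after 48 h compound exposure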
[22] = luciferase reporter signal reduction – luminescence, H4-C neuroglioblastoma cells, dose response (AID 2458); type: functional, cell-based;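 also: H4 neuroglioblastoma cells stably carrying a luciferase reporter gene fusion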
[23] = toxicity toward HEK293 cells – cell-based, dry powder samples, cytotoxicity control, dose response (AID 720567); type: functional
[24] = alpha-synuclein stem-loop luciferase translation blockers – H4 neuroglioma cells, luminescence, confirmation (AID 1988); type: functional, cell-based
[25] = alpha-synuclein stem-loop translation blockers – luminescence, H4 neuroglioblastoma cells, dose confirmation, confirmation (AID 2454); type: functional, cell-based;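 also: H4 neuroglioblastoma cells carrying an alpha-synuclein 5'UTR luciferase reporter; potency for inhibition of the luciferase signal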
[26] = cells; type: functional, cell-based
[27] = luciferase reporter signal suppression in cells – H4 neuroglioma cells, luminescence, dose response (AID 1990); type: functional, cell-based
[28] = Luminescence Cell-Based Dose Response HTS to Identify Inhibitors of 5'UTR Stem-Loop Driven Prion Protein mRNA Translation in H4 Neuroglioblastoma Cells. [Related pubchem assays: 1827 (Project Summary), 1813 (Primary HTS)]; type: functional
[29] = general cell-killing toxicity readout – plate reader, dry powder samples, cytotoxicity control for PAX8 inhibitor project, dose response (AID 743021); type: functional, cell-based
[30] = cells; type: functional, cell-based; remark: listed apart in the source
[31] = cells; type: functional, cell-based; remark: listed apart in the source
[32] = molecular target: T3, Trace amine-associated receptor 1 (Homo sapiens, UniProt Q96RJ0); experiment: Counterscreen for agonists of the human trace amine associated receptor 1 (hTAAR1): Fluorescence-based cell-based high throughput dose response assay to identify hTAAR1 agonist that also desensitize TAAR1 receptor response.; type: functional
T3 sequence (Q96RJ0 whole entry): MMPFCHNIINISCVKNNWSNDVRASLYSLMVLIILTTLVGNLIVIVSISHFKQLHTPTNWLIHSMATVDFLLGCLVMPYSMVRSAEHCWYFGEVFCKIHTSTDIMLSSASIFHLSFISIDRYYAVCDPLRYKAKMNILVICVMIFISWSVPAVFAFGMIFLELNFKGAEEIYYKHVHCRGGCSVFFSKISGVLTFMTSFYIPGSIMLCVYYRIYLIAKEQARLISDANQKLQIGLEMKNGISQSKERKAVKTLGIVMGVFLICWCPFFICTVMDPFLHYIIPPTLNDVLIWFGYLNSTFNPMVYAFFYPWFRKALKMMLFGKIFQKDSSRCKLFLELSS

[33] = molecular target: T3, Trace amine-associated receptor 1; experiment: Fluorescence-based cell-based high throughput dose response assay to identify agonists of the human trace amine associated receptor 1 (TAAR1).; type: functional

CCN1CCN(C2=C(N(C)C(C)=O)C(=O)c3ccccc3C2=O)CC1
AC50 [1]: 6.2 µM (active)
AC50 [2]: 12.4 µM (active)

COc1ccc(NC(=O)c2ccc([N+](=O)[O-])o2)cc1
EC50 [3]: 3.55 µM (active)
EC50 [4]: > 91.1 µM (inactive)
EC50 [5]: > 91.1 µM (inactive)
EC50 [6]: 28.2 µM (active)

O=C1C(=C2CCc3ccccc32)Cc2ccccc21
EC50 [7]: > 67.4 µM (inactive)
EC50 [8]: > 67.4 µM (inactive)

O=S1(=O)N[C@@H](Cc2ccccc2)COc2cccc(N3CCCC3)c21
AC50 [9]: > 30 µM (inactive)

O=C(C[C@@H]1C[C@H]2c3cc(NS(=O)(=O)c4ccc(F)cc4)ccc3O[C@H]2[C@H](CO)O1)NCc1ccc(-c2ccccc2)cc1
AC50 [10]: 9.15 µM (active)
AC50 [11]: 10.6 µM (active)
AC50 [12]: 14.8 µM (active)
AC50 [13]: > 30 µM (inactive)
AC50 [14]: 3.44 µM (active)
AC50 [15]: 14.6 µM (active)
AC50 [16]: 17.6 µM (active)

C[C@@H]1CCCCO[C@H](CN(C)S(=O)(=O)c2ccc(F)cc2)[C@@H](C)CN([C@H](C)CO)C(=O)c2cc(NC(=O)Nc3ccc(C(F)(F)F)cc3)ccc2O1
AC50 [17]: 3.61 µM (active)
IC50 [18]: > 69.5 µM (inactive)
IC50 [19]: > 69.5 µM (inactive)

CCOC(=O)c1cnc2ccc(C)cn2c1=O
IC50 [20]: 1.23 µM (active)

N=C(NC(=S)Nc1ccc2c(c1)OCO2)c1ccccc1
EC50 [7]: > 67.5 µM (inactive)
EC50 [8]: > 67.5 µM (inactive)

CO[C@H]1CN(C)C(=O)c2ccc(NC(C)=O)cc2OC[C@@H](C)N(C(=O)CC2CC2)C[C@H]1C
AC50 [21]: 49.6 µM (active)

O=C(N/N=C/c1ccc(Cl)cc1)c1sccc1OCc1ccc(F)cc1
EC50 [22]: 889 nM (active)
AC50 [23]: 22.3 µM (active)
EC50 [24]: < 100 nM (active)
EC50 [25]: > 3.8 µM (not active)
EC50 [26]: 1.3 µM (active)
EC50 [27]: 10.2 µM (active)
EC50 [28]: < 100 nM (active)

CO[C@@H]1CN(C)C(=O)c2cc(NC(=O)c3ccc(-c4ccccc4)cc3)ccc2OC[C@H](C)NC[C@H]1C
AC50 [29]: 40.4 µM (active)
AC50 [10]: 42.2 µM (active)
AC50 [11]: 37.2 µM (active)
AC50 [14]: 25.3 µM (active)

COc1ccc2c(c1)C(SCC(=O)NCCc1ccccc1)CC(C)(C)O2 (stereo not drawn)
EC50 [30]: > 29.9 µM (inactive)
IC50 [31]: > 29.9 µM (inactive)
IC50 [32]: 2.31 µM (active)
EC50 [33]: 1.04 µM (active)
